Reference: patent publication US9102648B1, “Bioavailable diacylhydrazine ligands for modulating the expression of exogenous genes via an ecdysone receptor complex” (Intrexon Corporation, priority 2003, dated 2015)
Like-named read-outs stand apart in the source and are kept apart here.

How the values were obtained:
[1] = target: T1, Bombyx mori EcR (VP16 fusion, CVBE switch construct) (Bombyx mori, UniProt P49881); assay: Z3 Assay (HEK-293 cells with CVBE and 6XEcRE LacZ, β-galactosidase reporter); conditions: for Fold Induction, Z3 Assay, 3.3 uM: 3.3 uM ligand; for Fold Induction, Z3 Assay, 3.3 uM / Fold Induction, Z3 Assay, 33 uM: ligand treated / DMSO treated cells; for Fold Induction, Z3 Assay, 33 uM: 33 uM ligand; for Z3 assay Rel Max FI: maximum fold induction at any concentration relative to that of GS-E ligand; for fold induction at 3.3 µM: HEK293, read-out: Fold Induction, Z3 Assay, 3.3 uM; for fold induction at 33 µM: HEK293, read-out: Fold Induction, Z3 Assay, 33 uM
T1 sequence (P49881 86-606): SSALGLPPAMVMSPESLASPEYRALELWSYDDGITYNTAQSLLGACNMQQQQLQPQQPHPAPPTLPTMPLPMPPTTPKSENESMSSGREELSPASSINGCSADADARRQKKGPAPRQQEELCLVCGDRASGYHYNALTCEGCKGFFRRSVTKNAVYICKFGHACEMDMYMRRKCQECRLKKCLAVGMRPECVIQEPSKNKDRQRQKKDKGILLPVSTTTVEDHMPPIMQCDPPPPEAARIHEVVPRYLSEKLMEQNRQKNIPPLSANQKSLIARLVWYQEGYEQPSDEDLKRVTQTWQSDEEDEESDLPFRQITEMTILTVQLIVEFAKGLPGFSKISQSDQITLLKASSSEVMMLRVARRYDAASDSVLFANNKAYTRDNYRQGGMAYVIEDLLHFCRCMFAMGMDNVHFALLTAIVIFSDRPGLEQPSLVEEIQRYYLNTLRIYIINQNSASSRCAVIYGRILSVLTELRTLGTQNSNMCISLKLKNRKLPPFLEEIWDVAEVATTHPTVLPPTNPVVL
T1 sequence (P19793 1-462 partner): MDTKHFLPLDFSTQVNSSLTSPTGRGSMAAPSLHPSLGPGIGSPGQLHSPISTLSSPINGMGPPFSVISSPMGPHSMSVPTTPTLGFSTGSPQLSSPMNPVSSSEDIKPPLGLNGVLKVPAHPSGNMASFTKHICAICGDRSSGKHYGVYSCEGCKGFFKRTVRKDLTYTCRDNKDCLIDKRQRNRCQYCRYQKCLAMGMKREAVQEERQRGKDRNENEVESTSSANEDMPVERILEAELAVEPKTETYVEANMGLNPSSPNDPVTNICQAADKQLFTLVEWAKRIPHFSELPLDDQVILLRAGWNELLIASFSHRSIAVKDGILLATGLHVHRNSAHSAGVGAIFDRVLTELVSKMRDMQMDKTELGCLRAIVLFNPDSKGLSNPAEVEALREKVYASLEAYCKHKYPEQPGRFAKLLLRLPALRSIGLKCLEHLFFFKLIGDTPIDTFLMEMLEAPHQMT

[2] = target: GAL4 DBD-CfEcR(DEF)/VP16AD-MmRXRE (Choristoneura fumiferana, UniProt O77240); assay: 13B3 Assay (CHO stable cell line, luciferase reporter); conditions: for Fold Induction, 13B3 Assay, 3.3 uM: 3.3 uM ligand; for Fold Induction, 13B3 Assay, 3.3 uM / Fold Induction, 13B3 Assay, 33 uM: RLU ligand treated / RLU DMSO treated cells; for Fold Induction, 13B3 Assay, 33 uM: 33 uM ligand; for 13B3 assay Rel Max FI: maximum fold induction at any concentration relative to that of GS-E ligand, CHO 13B3 cells; for fold induction at 33 µM: read-out: Fold Induction, 13B3 Assay, 33 uM; for fold induction at 3.3 µM: read-out: Fold Induction, 13B3 Assay, 3.3 uM
Outline: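 Ligands dosed at 8 levels from 33 to 0.01 μM (DMSO stocks diluted 300-fold) onto the 13B3 CHO line carrying GAL4-DBD/CfEcR-DEF, VP16/MmRXR-DE and a GAL4-responsive luciferase gene.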

[3] = read-out: Z3 assay EC50, HEK-293 Z3 cells, β-galactosidase reporter, average of two wells
[4] = read-out: 13B3 EC50, CHO 13B3 stable cell line, luciferase reporter, 48 h, average of two wells

| SMILES | Fold Induction, Z3 Assay, 3.3 uM ([1]; average of two wells) | Fold Induction, Z3 Assay, 33 uM ([1]; average of two wells) | Z3 assay Rel Max FI ([1]; HEK-293 Z3 cells) | EC50 [1, 3] | Fold Induction, 13B3 Assay, 3.3 uM ([2]; average of two wells) | Fold Induction, 13B3 Assay, 33 uM ([2]; average of two wells) | 13B3 assay Rel Max FI [2] | EC50 [2, 4] | EC50 [1] | EC50 [2] | fold induction at 3.3 µM [1] | fold induction at 33 µM [1] | fold induction at 33 µM [2] | fold induction at 3.3 µM [2] |
| --- | --- | --- | --- | --- | --- | --- | --- | --- | --- | --- | --- | --- | --- | --- |
| CCc1c(OC)cccc1C(=O)NN(C(=O)c1cc(C)cc(C)c1)C(C)(C)C=NCCO [RG-115511] | 10 | 570 | 0.66 | 39000 nM | 1 | 98 | 0.07 | > 50000 nM |  |  |  |  |  |  |
| Cc1c(C(=O)NN(C(=O)c2ccc(F)cc2)C(C)(C)C)ccc2c1OCCO2 [RG-100425] | 1128 | 592 | 1.180 | 99 nM |  | 747 |  |  |  |  |  |  |  |  |
| CCc1c(OC)cccc1C(=O)NN(C(=O)c1cc(C)cc(C)c1)C(C)(C)C [RG-102240, N-(3-methoxy-2-ethylbenzoyl)-N′-(3,5-dimethylbenzoyl)-N′-tert-butylhydrazine] |  |  | 1 |  |  |  | 1 |  | 286 nM | 500 nM |  |  |  |  |
| CCc1c(OC)cccc1C(=O)NN(C(=O)c1ccccc1OC)C(C)(C)C [RG-100725] |  | 511 |  |  |  | 581 |  |  |  |  |  |  |  |  |
| COc1cccc(C(=O)NN(C(=O)c2cc(C)cc(C)c2)C(C)(C)C)c1[N+](=O)[O-] [RG-100568] | 276 | 1193 | 0.855 | 3310 nM | 2 | 4122 | 1.035 | 44300 nM |  |  |  |  |  |  |
| CCc1c(OC)cccc1C(=O)NN(C(=O)c1cc(C)cc(C)c1)C(C)(C)C(=O)O [RG-115044, 2-[N-(3,5-Dimethyl-benzoyl)-N′-(2-ethyl-3-methoxy-benzoyl)-hydrazino]-2-methyl-propionic acid] |  |  | 1.08 |  |  |  | 0.87 |  | > 50000 nM | > 50000 nM | 1 | 7 | 1 |  |
| COc1ccc(Cl)cc1C(=O)N(NC(=O)c1ccc2c(c1C)CCCO2)C(C)(C)C [RG-115551] |  | 470 |  | 398 nM |  | 290 |  |  |  |  |  |  |  |  |
| CCc1c(OC)cccc1C(=O)NN(C(=O)c1ccc(Cl)cc1[N+](=O)[O-])C(C)(C)C [RG-115647] | 96 | 510 | 0.923 | 145 nM | 2169 | 98 | 0.662 | 832 nM |  |  |  |  |  |  |
| COc1ccc(C)cc1C(=O)N(NC(=O)c1cccc(OC)c1C)C(C)(C)C [RG-100766] | 921 | 474 | 1.194 | 174 nM |  | 391 |  |  |  |  |  |  |  |  |
| CCc1c(OC)cccc1C(=O)NN(C(=O)c1cc(C)cc(C)c1)C(C)(C)C=NO [RG-115258, 2-ethyl-3-methoxy-benzoic acid N′-(3,5-dimethyl-benzoyl)-N′-(2-hydroxyimino-1,1-dimethyl-ethyl)-hydrazide] |  |  | 0.882 |  |  |  | 1.334 |  | 646 nM | 27100 nM | 382 | 1120 | 3740 | 144 |
| Cc1ccc([N+](=O)[O-])c(C(=O)N(NC(=O)c2ccc3c(c2C)CCCO3)C(C)(C)C)c1 [RG-115664] | 209 | 620 | 0.846 | 126 nM | 1363 | 333 | 0.497 | 323 nM |  |  |  |  |  |  |
| Cc1cc(C)cc(C(=O)N(NC(=O)c2ccc3c(c2C)OCCO3)C(C)(C)C)c1 [RG-102317, N-(5-methyl-1,4-benzodioxan-6-carbonyl)-N′-(tert-butyl)-N′-(3,5-dimethylbenzoyl)hydrazine] |  |  |  |  |  |  |  |  |  | 345 nM | 416 | 1500 | 814 | 2420 |
